In paper PMC7659345, “Viral rhodopsins 1 are an unique family of light-gated cation channels” (Nature Communications, 2020):

Legend:
VirChR1 = molecular target: T1, VirChR1 (marine metagenome, UniProt Z9TV22U1G0); experiment: UV-visible absorption of purified holoprotein; format: binding; conditions: covalent Schiff base (by homology); pH 7.5; all-trans-retinal added to E. coli culture
T1 sequence (Z9TV22U1G0 1-242): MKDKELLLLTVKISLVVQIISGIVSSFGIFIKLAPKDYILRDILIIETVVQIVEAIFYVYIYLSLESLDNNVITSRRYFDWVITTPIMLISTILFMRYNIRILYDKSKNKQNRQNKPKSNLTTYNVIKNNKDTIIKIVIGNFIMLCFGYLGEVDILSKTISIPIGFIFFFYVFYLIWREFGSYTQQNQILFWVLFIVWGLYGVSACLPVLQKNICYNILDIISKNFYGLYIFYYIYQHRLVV

OLPVR1 = molecular target: T2, OLPVR1 (Organic Lake phycodnavirus 1, UniProt Z9N4O7KYY5); experiment: X-ray crystal structure, […] A (type A, P21212) and […] A (type B, P1); format: binding; conditions: covalent Schiff base to K204; all-trans 15-anti; crystals grown in meso with monopalmitolein, pH 8.0 (7AKY); also 7AKX (monoolein, pH 7.0)
T2 construct: residues 2-223 resolved; one (P21212) or two (P1) molecules per asymmetric unit
T2 sequence (Z9N4O7KYY5 1-223): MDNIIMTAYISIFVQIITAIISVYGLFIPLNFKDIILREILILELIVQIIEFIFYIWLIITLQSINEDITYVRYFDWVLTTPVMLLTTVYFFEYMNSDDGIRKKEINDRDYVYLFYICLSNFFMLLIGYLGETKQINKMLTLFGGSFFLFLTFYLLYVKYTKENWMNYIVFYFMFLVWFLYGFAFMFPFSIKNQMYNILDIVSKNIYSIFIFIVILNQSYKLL

Question: For `CC1=C(/C=C/C(C)=C/C=C/C(C)=C/C=O)C(C)(C)CCC1` [all-trans retinal], which “UV-visible absorption of purified holoprotein” value (VirChR1) is on record?
Answer: The value was “Both OLPVR1 and VirChR1 show absorption spectra sensitive to blue light”.

Question: And the “X-ray crystal structure, 1.4 A (type A, P21212) and 1.6 A (type B, P1)” value (OLPVR1)?
Answer: Its value is “all-trans retinal (ATR) covalently bound to K204 (K257 in CrChR2”.
